Measured values taken from PubChem BioAssay AID248 (DTP/NCI, 2004).
Where “and” joins values, the source holds several entries; their conditions need not be identical. Equal entries are not always repeated. Toxic doses and inconclusive results are not listed. No stated cut-off is given here; in the data, active means T/C of 150% or more; inactive means T/C below 125%.

Test system: L1210 leukemia ip in BDF1 mice, survival T/C
Experiment: NCI In Vivo Anticancer Drug Screen. Data for tumor model L1210 Leukemia (intraperitoneal) in B6D2F1 (BDF1) mice
Settings: endpoint: mean survival time, higher = longer survival
Outline: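 Antitumor effect is assessed in tumor-bearing animals. Survival in the compound arm is compared with a vehicle-dosed control arm and expressed as their quotient.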

[1] = dose: 100.0 mg/kg/injection, schedule: Q01DX001 (ip), vehicle: saline
[2] = dose: 200.0 mg/kg/injection, schedule: Q01DX001 (ip), vehicle: saline
[3] = dose: 5.0 mg/kg/injection, schedule: Q01DX001 (ip), vehicle: saline
[4] = dose: 10.0 mg/kg/injection, schedule: Q01DX001 (ip), vehicle: saline
[5] = dose: 20.0 mg/kg/injection, schedule: Q01DX001 (ip), vehicle: saline
[6] = dose: 40.0 mg/kg/injection, schedule: Q01DX001 (ip), vehicle: saline
[7] = dose: 100.0 mg/kg/injection, schedule: Q01DX009 (ip), vehicle: saline with Tween-80
[8] = dose: 200.0 mg/kg/injection, schedule: Q01DX009 (ip), vehicle: saline with Tween-80
[9] = dose: 50.0 mg/kg/injection, schedule: Q04DX003 (ip), vehicle: saline
[10] = dose: 100.0 mg/kg/injection, schedule: Q01DX009 (ip), vehicle: saline
[11] = dose: 100.0 mg/kg/injection, schedule: Q04DX003 (ip), vehicle: saline
[12] = dose: 200.0 mg/kg/injection, schedule: Q01DX009 (ip), vehicle: saline
[13] = dose: 200.0 mg/kg/injection, schedule: Q04DX003 (ip), vehicle: saline
[14] = dose: 50.0 mg/kg/injection, schedule: Q04DX002 (ip), vehicle: Klucel (hydroxypropylcellulose) (HPC)
[15] = dose: 100.0 mg/kg/injection, schedule: Q04DX002 (ip), vehicle: Klucel (hydroxypropylcellulose) (HPC)
[16] = dose: 100.0 mg/kg/injection, schedule: Q01DX001 (ip), vehicle: carboxymethylcellulose (CMC)
[17] = dose: 200.0 mg/kg/injection, schedule: Q01DX001 (ip), vehicle: carboxymethylcellulose (CMC)
[18] = dose: 400.0 mg/kg/injection, schedule: Q01DX001 (ip), vehicle: carboxymethylcellulose (CMC)
[19] = dose: 100.0 mg/kg/injection, schedule: Q04DX003 (ip), vehicle: saline with Tween-80
[20] = dose: 200.0 mg/kg/injection, schedule: Q04DX003 (ip), vehicle: saline with Tween-80
[21] = dose: 400.0 mg/kg/injection, schedule: Q04DX003 (ip), vehicle: saline with Tween-80
[22] = dose: 100.0 mg/kg/injection, schedule: Q01DX009 (ip), vehicle: Klucel (hydroxypropylcellulose) (HPC)
[23] = dose: 200.0 mg/kg/injection, schedule: Q01DX009 (ip), vehicle: Klucel (hydroxypropylcellulose) (HPC)
[24] = dose: 400.0 mg/kg/injection, schedule: Q04DX003 (ip), vehicle: saline
[25] = dose: 25.0 mg/kg/injection, schedule: Q01DX009 (ip), vehicle: Klucel (hydroxypropylcellulose) (HPC)
[26] = dose: 50.0 mg/kg/injection, schedule: Q01DX009 (ip), vehicle: Klucel (hydroxypropylcellulose) (HPC)

Measured: T/C

CCCCc1ccc2nc3cc4ccccc4cc3nc2c1
inactive: dose: 50.0 mg/kg/injection, schedule: Q01DX001 (ip), vehicle: saline 95 % of control | [1] 98 % of control | [2] 93 % of control | dose: 400.0 mg/kg/injection, schedule: Q01DX001 (ip), vehicle: saline 110 % of control

CCCCCCCCCCCCCC(=O)O (tested in a mixture with another compound)
inactive: [3] 101 % of control | [4] 95 % of control | [5] 102 % of control | [6] 102 % of control | dose: 80.0 mg/kg/injection, schedule: Q01DX001 (ip), vehicle: saline 90 % of control | [1] 98 % of control

CC(C)c1cccc(OC(=O)N(C)[Si](C)(C)C)c1
inactive: [3] 105 % of control | [4] 97 % of control | [5] 101 % of control | [6] 101 % of control

Clc1ccc(C#[C][Hg][C]#Cc2ccc(Cl)cc2)cc1
inactive: dose: 50.0 mg/kg/injection, schedule: Q01DX009 (ip), vehicle: saline with Tween-80 109 % of control | [7] 95 % of control | [8] 92 % of control

Cc1cc(Cl)ccc1NC(=O)Nc1c(Oc2ccc(Cl)cc2)ccc(Cl)c1S(=O)(=O)O
inactive: dose: 50.0 mg/kg/injection, schedule: Q01DX009 (ip), vehicle: saline 104 % of control | [9] 95 % of control | [10] 104 % of control | [11] 97 % of control | [12] 100 % of control | [13] 103 % of control

CC(=O)OC(C)C(C)Br (stereo unspecified)
inactive: [14] 93 % of control | dose: 100.0 mg/kg/injection, schedule: Q01DX001 (ip), vehicle: acetone 89 % of control | [15] 100 % of control | dose: 200.0 mg/kg/injection, schedule: Q01DX001 (ip), vehicle: acetone 92 % of control

COC1COC(OC)C(OS(C)(=O)=O)C1OC (stereo unspecified)
inactive: [16] 106 % of control | [17] 98 % of control | [18] 101 % of control

CCCCCCCCCCCCCCCCCCOB(OCCCCCCCCCCCCCCCCCC)OCCCCCCCCCCCCCCCCCC
inactive: [19] 108 % of control | [20] 108 % of control | [21] 97 % of control

CCN(CC)CCN(C)C(=O)C(c1ccccc1)c1ccccc1
inactive: [11] 98 % of control | [13] 93 % of control

CCc1ccc(NC(=O)Nc2ccccc2C)cc1
inactive: [22] 92 % of control | dose: 100.0 mg/kg/injection, schedule: Q04DX003 (ip), vehicle: Klucel (hydroxypropylcellulose) (HPC) 93 % of control | [23] 94 % of control | dose: 200.0 mg/kg/injection, schedule: Q04DX003 (ip), vehicle: Klucel (hydroxypropylcellulose) (HPC) 93 % of control | dose: 400.0 mg/kg/injection, schedule: Q01DX009 (ip), vehicle: Klucel (hydroxypropylcellulose) (HPC) 100 % of control | dose: 400.0 mg/kg/injection, schedule: Q04DX003 (ip), vehicle: Klucel (hydroxypropylcellulose) (HPC) 94 % of control

O=c1oc2ccccc2c(=S)n1-c1ccccc1
inactive: [11] 105 % of control | [13] 94 % of control | [24] 91 % of control

O=C(Nc1ccccn1)c1cc(N2CCOCC2)ccn1
inactive: [1] 102 % of control

O=C1NC(C2CC3C=CC2C3)Nc2ccccc21 (stereo unspecified)
inactive: dose: 12.5 mg/kg/injection, schedule: Q01DX009 (ip), vehicle: Klucel (hydroxypropylcellulose) (HPC) 100 % of control | dose: 12.5 mg/kg/injection, schedule: Q04DX003 (ip), vehicle: Klucel (hydroxypropylcellulose) (HPC) 111 % of control | [25] 101 % of control | dose: 25.0 mg/kg/injection, schedule: Q04DX003 (ip), vehicle: Klucel (hydroxypropylcellulose) (HPC) 103 % of control | [26] 96 % of control | dose: 50.0 mg/kg/injection, schedule: Q04DX003 (ip), vehicle: Klucel (hydroxypropylcellulose) (HPC) 103 % of control

O=C(O)C1C2CCCCCCC21 (stereo unspecified)
inactive: [26] 108 % of control | dose: 100.0 mg/kg/injection, schedule: Q01DX005 (ip), vehicle: Klucel (hydroxypropylcellulose) (HPC) 95 % of control | [22] 108 % of control | dose: 200.0 mg/kg/injection, schedule: Q01DX005 (ip), vehicle: Klucel (hydroxypropylcellulose) (HPC) 103 % of control | [23] 97 % of control

Cc1ccc(S(=O)(=O)N(CCC(=O)O)Cc2ccccc2)cc1
inactive: [16] 121 % of control | [17] 103 % of control | [18] 108 % of control

NCc1ccc(NC(=O)c2ccc(C(=O)Nc3ccc(CN)cc3)c(N)c2)cc1
inactive: dose: 21.0 mg/kg/injection, schedule: Q01DX Z (ip), vehicle: water 100 % of control | dose: 42.0 mg/kg/injection, schedule: Q01DX Z (ip), vehicle: water 98 % of control

O=[n+]1c2c(n([O-])c3ccccc31)-c1cccc3cccc-2c13
inactive: [9] 96 % of control | [1] 88 % of control | [11] 93 % of control | dose: 125.0 mg/kg/injection, schedule: Q01DX Z (ip), vehicle: methylcellulose (MC) 98 % of control | [2] 94 % of control | [13] 93 % of control

C=CCNC(=O)Nc1ncc([N+](=O)[O-])s1
inactive: [25] 90 % of control | dose: 25.0 mg/kg/injection, schedule: Q04DX002 (ip), vehicle: Klucel (hydroxypropylcellulose) (HPC) 101 % of control | [26] 111 % of control | [14] 93 % of control | [15] 93 % of control

COc1ccc(C(=O)C[N+](=O)[O-])cc1
inactive: [7] 94 % of control | [19] 106 % of control | [8] 99 % of control | [20] 103 % of control | [21] 101 % of control

CSCCC(NC(C)=O)C(=O)O (stereo unspecified)
inactive: [10] 99 % of control | [11] 94 % of control | [12] 86 % of control | [13] 91 % of control | dose: 400.0 mg/kg/injection, schedule: Q01DX009 (ip), vehicle: saline 96 % of control | [24] 91 % of control

N=C(N)c1ccc(OCCCCOc2ccc(NC(=O)c3cccc(S(=O)(=O)F)c3)cc2)cc1
inactive: dose: 50.0 mg/kg/injection, schedule: Q01DX001 (ip), vehicle: saline with Tween-80 98 % of control | dose: 100.0 mg/kg/injection, schedule: Q01DX001 (ip), vehicle: saline with Tween-80 95 % of control | dose: 200.0 mg/kg/injection, schedule: Q01DX001 (ip), vehicle: saline with Tween-80 97 % of control

Cc1ccc(C)c2c3c(sc12)CCCC3
inactive: [16] 95 % of control | [17] 90 % of control | [18] 101 % of control

Cc1c([N+](=O)[O-])cc(C(=O)Cl)cc1[N+](=O)[O-]
inactive: dose: 100.0 mg/kg/injection, schedule: Q04DX003 (ip), vehicle: other 106 % of control | dose: 200.0 mg/kg/injection, schedule: Q04DX003 (ip), vehicle: other 109 % of control

COC(=O)N1C=C2C(C)=CC1C(C#N)(C#N)C2(C#N)C#N (stereo unspecified)
inactive: [4] 105 % of control and 87 % of control | [6] 98 % of control

Nc1nc(N)c(-c2ccc(Cl)c(Cl)c2)c(CCc2ccc(S(=O)(=O)F)cc2)n1
inactive: [22] 112 % of control | [23] 98 % of control

CCN(CC)CCNc1ncnc2[nH]ncc12
inactive: dose: 25.0 mg/kg/injection, schedule: Q04DX003 (ip), vehicle: saline 89 % of control | [9] 86 % of control | [11] 103 % of control and 89 % of control

Cn1cc(C(=Nc2ccccc2)Nc2ccccc2)c2ccccc21
inactive: dose: 75.0 mg/kg/injection, schedule: Q01DX001 (ip), vehicle: saline 94 % of control | dose: 150.0 mg/kg/injection, schedule: Q01DX001 (ip), vehicle: saline 94 % of control | dose: 300.0 mg/kg/injection, schedule: Q01DX001 (ip), vehicle: saline 89 % of control
